According to ChEMBL document CHEMBL1201862, “PubChem BioAssay data set” (2004):
Each block holds one compound with its values, some of them ahead of it. The source made the active and inactive calls.

How the values were obtained:
P388 = assay: cells; assay type: functional; settings: Mus musculus
P388/ADR = assay: cells; assay type: functional; settings: Mus musculus
SN12K1 = assay: cells; assay type: functional; settings: Homo sapiens
[1] = biological target: T1, Sentrin-specific protease 7 (Homo sapiens, UniProt Q9BQF6); assay type: functional;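 note: Luminescence-based dose-response confirmation of ultra-high-throughput screening hits, measuring inhibition of SENP7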
T1 sequence (Q9BQF6 whole entry): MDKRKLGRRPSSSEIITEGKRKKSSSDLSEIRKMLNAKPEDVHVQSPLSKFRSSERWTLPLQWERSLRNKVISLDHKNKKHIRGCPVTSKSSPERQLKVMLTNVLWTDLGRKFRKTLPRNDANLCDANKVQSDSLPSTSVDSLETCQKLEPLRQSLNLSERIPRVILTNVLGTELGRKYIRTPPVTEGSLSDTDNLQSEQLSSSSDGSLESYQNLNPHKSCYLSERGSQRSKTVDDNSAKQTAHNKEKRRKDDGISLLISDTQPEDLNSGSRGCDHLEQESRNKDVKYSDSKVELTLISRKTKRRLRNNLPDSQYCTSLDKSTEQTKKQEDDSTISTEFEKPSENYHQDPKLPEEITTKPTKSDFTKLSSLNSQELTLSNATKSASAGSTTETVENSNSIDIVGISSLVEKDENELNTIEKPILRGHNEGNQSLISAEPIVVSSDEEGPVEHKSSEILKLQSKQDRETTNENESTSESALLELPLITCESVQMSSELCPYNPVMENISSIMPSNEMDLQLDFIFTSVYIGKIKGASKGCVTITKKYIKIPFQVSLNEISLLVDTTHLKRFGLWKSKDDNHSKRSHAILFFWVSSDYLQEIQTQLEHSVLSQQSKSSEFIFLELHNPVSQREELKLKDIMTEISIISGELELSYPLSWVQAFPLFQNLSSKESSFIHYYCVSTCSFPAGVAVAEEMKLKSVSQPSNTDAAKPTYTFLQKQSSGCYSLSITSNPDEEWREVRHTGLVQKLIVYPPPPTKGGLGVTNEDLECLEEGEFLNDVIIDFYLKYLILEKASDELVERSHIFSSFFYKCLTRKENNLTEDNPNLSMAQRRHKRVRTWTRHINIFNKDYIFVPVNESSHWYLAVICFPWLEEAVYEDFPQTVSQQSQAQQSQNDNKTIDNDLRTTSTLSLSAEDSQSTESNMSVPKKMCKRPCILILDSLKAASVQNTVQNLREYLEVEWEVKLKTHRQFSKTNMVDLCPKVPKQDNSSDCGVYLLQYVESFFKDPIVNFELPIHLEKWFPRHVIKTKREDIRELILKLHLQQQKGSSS

Caspase-3 [2] = biological target: T2, Caspase-3 (Homo sapiens, UniProt P42574); assay type: functional
T2 sequence (P42574 whole entry): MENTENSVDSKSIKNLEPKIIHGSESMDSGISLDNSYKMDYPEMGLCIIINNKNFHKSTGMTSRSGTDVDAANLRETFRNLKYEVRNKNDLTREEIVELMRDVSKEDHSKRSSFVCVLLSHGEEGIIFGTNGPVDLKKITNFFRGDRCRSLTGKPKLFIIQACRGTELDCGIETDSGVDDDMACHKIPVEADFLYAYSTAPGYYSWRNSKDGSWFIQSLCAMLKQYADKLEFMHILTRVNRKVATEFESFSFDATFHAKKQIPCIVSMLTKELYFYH

[3] = biological target: T3, Sentrin-specific protease 8 (Homo sapiens, UniProt Q96LD8); assay type: functional;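 note: luminescence read-out of SENP8 inhibition, dose-response confirmation following an ultra-high-throughput screen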
T3 sequence (Q96LD8 whole entry): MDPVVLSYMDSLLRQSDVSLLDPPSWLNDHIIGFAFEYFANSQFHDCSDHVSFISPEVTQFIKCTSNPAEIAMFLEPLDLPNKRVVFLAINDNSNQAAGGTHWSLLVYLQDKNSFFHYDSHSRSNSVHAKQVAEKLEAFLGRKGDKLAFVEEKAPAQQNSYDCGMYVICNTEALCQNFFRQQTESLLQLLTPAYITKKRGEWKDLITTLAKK

[4] = biological target: Luciferin 4-monooxygenase (Photinus pyralis, UniProt P08659); assay: Counter Screen for Luciferase-based Assay Positives. [Related pubchem assays: 620, 618, 411 ]
[5] = biological target: T4, Sentrin-specific protease 6 (Homo sapiens, UniProt Q9GZR1); assay type: functional
T4 sequence (Q9GZR1 whole entry): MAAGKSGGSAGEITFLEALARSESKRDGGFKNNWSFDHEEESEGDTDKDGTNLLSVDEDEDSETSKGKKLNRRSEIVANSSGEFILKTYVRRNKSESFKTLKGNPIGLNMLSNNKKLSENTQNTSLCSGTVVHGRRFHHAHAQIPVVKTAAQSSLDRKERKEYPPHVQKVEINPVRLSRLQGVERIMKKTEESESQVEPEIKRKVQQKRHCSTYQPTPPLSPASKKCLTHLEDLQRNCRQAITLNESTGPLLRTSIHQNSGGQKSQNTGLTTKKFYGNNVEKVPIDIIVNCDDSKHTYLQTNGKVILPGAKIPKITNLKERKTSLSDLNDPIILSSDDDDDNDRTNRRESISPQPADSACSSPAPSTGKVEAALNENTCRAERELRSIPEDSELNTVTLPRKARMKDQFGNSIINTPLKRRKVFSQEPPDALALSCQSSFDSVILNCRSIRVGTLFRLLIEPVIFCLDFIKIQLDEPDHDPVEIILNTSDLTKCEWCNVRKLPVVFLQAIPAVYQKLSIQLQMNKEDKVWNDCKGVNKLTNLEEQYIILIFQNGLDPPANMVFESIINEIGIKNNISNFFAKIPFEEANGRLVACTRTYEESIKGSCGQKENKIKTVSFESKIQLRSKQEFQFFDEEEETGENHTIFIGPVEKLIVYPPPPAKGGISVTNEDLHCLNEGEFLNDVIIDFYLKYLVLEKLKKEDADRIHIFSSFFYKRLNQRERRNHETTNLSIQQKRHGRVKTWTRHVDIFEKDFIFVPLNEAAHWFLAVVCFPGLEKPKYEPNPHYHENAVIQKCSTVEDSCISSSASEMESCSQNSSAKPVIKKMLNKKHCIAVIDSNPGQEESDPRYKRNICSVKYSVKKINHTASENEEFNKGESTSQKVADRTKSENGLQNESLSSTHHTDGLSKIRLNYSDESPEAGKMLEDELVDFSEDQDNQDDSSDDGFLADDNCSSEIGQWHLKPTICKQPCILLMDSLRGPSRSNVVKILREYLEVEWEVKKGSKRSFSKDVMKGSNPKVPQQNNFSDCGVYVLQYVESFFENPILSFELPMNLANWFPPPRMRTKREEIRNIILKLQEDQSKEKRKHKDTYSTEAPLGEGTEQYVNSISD

[6] = HEp-2 cell cytotoxicity, dose response, cytotoxicity control for RSV inhibitor project, HTS (AID 2410); assay type: functional; settings: human respiratory syncytial virus
HT-1080 = assay: cytotoxicity in HT1080 fibrosarcoma cells, cell-based, fluorescence readout (AID 620); assay type: functional; settings: Homo sapiens
Cytochrome P450 3A4 = Cytochrome P450 3A4 (Homo sapiens, UniProt P08684);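 note: CYP3A4 tested as one member of a cytochrome P450 panel screen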
HeLa = assay: HeLa cell cytotoxicity, dose response, cytotoxicity control for MITF activator project, CellTiter-Glo luminescence, cherry-pick samples (AID 540259); assay type: functional, cell-based; settings: Homo sapiens
Beta-galactosidase = Beta-galactosidase (Escherichia coli, UniProt Q8VNN2); assay: PubChem AID 485352; assay type: functional
[7] = biological target: T5, Type-1 angiotensin II receptor (Homo sapiens, UniProt P30556); assay: AT1 receptor antagonists, dose response, selectivity assay for APJ receptor antagonist project, cell-based, uHTS hits (AID 463214); assay type: functional;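 note: antagonist potency against angiotensin II stimulated AT1 response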
T5 sequence (P30556 whole entry): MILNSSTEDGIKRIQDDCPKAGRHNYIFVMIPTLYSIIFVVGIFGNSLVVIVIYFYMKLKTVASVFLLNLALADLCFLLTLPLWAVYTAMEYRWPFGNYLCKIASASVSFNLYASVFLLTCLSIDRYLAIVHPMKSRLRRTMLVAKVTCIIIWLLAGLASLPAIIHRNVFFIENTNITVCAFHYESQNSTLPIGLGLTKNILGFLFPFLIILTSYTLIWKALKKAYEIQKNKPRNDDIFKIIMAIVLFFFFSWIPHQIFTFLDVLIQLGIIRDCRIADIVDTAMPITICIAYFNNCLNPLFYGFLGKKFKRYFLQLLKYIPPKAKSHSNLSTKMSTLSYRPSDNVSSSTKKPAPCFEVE

[8] = biological target: Beta-2 adrenergic receptor (Homo sapiens, UniProt P07550); assay: beta2AR agonists driving receptor internalization, dose response, cell-based, FAP fluorogen, flow cytometry, cherry pick 1 (AID 588763); assay type: functional
Streptococcus = assay: Group A Streptococcus viability loss, dose response, counter-screen for streptokinase expression inhibitor project, luminescence, BacTiterGlo (AID 1915); assay type: functional, organism-based;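 note: potency for reduction of bacterial viability or growth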
[9] = test system: Streptococcus sp. 'group A'; assay: growth inhibition of control SK(-) GAS strain, dose response, counter-screen for streptokinase expression inhibitor project, luminescence, kanamycin, BacTiterGlo, confirmation (AID 1900); assay type: functional, organism-based
[10] = ZM109 Env clade C HIV-1 fusion inhibitors, dose response, HeLa effector, CEM target cells, luciferase, cherry-pick (AID 652058); assay type: functional, cell-based
[11] = off-target signal loss in HeLa-CEM21 co-culture – HeLa F-luc CTL cells, cherry-picked, counter-screen for HIV-1 Env fusion inhibitor project, dose response (AID 652040); assay type: functional, cell-based;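 note: potency for signal decrease marking cytotoxic or nonspecific inhibition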
[12] = inhibitors of HIV Env-driven cell fusion, dose response, cherry-pick (AID 652057); assay type: functional, cell-based
[13] = biological target: T3, Sentrin-specific protease 8; assay: SENP8 protease inhibitors, SAR follow-up, biochemical, luminescence (AID 504501); assay type: functional
Caspase-3 [14] = biological target: T2, Caspase-3; assay: SAR Analysis of small molecule inhibitors of Sentrin-specific proteases (SENPs) using a Caspase-3 Selectivity assay. [Related pubchem assays (depositor defined):AID2540, AID2599, AID434973, AID489001]; assay type: functional
[15] = biological target: T1, Sentrin-specific protease 7; assay: SENP7 protease inhibitors, SAR follow-up, biochemical, luminescence (AID 504497); assay type: functional
[16] = biological target: T4, Sentrin-specific protease 6; assay: SAR Analysis of small molecule inhibitors of Sentrin-specific protease 6 (SENP6) using a Luminescent assay. [Related pubchem assays (depositor defined):AID2582, AID2599]; assay type: functional

Beta-galactosidase, sequence (Q8VNN2 whole entry): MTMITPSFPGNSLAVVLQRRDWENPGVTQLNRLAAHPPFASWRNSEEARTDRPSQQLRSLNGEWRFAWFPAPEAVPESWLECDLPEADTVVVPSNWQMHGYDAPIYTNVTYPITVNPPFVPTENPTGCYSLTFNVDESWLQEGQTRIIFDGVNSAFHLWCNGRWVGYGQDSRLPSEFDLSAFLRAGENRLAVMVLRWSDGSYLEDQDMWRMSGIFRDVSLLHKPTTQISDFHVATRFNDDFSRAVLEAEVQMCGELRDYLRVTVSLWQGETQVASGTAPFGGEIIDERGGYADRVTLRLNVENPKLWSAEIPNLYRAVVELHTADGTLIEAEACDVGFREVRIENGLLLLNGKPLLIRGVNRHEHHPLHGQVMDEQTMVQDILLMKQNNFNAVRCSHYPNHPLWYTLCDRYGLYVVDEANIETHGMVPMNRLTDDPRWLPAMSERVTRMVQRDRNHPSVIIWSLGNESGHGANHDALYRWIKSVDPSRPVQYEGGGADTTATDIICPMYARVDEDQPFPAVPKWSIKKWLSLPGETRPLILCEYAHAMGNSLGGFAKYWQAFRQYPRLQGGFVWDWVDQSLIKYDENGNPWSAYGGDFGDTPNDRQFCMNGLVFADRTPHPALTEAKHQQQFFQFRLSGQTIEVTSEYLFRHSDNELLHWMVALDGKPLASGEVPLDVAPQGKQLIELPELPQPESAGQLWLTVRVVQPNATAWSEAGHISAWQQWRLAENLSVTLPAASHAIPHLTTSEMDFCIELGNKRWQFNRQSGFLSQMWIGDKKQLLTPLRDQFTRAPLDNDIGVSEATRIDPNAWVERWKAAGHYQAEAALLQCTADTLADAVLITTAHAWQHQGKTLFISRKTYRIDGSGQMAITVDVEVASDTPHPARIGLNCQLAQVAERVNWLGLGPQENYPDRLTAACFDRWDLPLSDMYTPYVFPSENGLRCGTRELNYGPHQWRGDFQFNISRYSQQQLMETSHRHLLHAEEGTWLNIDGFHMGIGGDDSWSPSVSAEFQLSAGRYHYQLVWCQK
Beta-2 adrenergic receptor, sequence (P07550 whole entry): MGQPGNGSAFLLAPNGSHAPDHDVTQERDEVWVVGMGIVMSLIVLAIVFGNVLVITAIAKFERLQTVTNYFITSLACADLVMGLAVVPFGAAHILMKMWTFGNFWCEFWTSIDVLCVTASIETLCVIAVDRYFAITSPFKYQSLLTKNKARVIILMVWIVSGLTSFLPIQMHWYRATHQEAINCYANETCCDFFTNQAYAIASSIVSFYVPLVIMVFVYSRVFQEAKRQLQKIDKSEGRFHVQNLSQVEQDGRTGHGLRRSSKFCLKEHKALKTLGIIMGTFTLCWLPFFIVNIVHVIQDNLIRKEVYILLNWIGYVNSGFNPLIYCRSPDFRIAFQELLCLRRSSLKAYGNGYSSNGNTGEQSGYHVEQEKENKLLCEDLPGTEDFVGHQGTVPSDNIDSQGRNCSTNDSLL
Luciferin 4-monooxygenase, sequence (P08659 whole entry): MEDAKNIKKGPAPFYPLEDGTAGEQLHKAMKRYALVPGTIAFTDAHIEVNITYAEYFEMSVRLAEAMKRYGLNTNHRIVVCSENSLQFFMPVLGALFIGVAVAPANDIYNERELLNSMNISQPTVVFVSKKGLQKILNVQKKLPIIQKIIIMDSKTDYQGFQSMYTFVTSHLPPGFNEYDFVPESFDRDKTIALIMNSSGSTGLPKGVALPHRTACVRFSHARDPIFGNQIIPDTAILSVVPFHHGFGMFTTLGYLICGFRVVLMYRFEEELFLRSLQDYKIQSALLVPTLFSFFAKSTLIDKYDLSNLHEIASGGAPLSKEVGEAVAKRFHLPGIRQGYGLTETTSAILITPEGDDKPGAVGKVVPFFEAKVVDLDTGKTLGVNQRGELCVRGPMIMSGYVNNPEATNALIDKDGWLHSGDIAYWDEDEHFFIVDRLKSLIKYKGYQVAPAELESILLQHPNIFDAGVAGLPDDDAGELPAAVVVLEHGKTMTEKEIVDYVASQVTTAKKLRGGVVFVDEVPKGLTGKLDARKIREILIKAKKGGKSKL
Cytochrome P450 3A4, sequence (P08684 whole entry): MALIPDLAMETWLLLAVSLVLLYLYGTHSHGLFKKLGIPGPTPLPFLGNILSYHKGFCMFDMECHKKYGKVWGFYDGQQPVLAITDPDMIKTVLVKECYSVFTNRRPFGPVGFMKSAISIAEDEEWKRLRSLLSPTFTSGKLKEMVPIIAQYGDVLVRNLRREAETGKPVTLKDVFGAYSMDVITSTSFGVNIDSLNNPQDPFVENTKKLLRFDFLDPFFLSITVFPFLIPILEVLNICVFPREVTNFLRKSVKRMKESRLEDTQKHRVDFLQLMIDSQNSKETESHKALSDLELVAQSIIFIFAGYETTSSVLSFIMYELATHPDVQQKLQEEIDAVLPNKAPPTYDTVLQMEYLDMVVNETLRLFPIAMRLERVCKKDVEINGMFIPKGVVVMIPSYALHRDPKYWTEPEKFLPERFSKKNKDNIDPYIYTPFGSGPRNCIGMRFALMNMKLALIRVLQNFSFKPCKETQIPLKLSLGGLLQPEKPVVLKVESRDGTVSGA

SMILES: CCCSc1nc(COC(=O)NC)c(COC(=O)NC)n1C
- GI50 (P388): 21.1 µM (inactive)
- GI50 (P388/ADR): 23.8 µM (inactive)
- GI50 (SN12K1): > 100 µM (inactive)

SMILES: CCCC(=O)Nc1ccc(-c2nc3cc(C)ccc3o2)cc1
- IC50 [1]: 4.35 µM (active)
- IC50 (Caspase-3 [2]): 23.5 µM (active)
- IC50 [3]: 45.2 µM (active)
- EC50 [4]: 0.21 µM (active)
- IC50 [5]: 64.7 µM (active)
- CC50 [6]: 26.7 µM (active)
- EC50 (HT-1080): > 50 µM (not active)

SMILES: CSc1ccc(CNc2ccc(Cl)cc2)cc1
- AC50 (Cytochrome P450 3A4): inconclusive
- AC50 (HeLa): 56.4 µM (active)

SMILES: O=C1N=c2ccc(Br)cc2=C1Nc1ccc(-c2nnc3n2CCCCC3)cc1
- EC50 (Beta-galactosidase): > 40 µM (inactive)
- IC50 [7]: 29.4 µM (not active)

SMILES: Cc1cccc2sc(NC(=O)c3ccc(NS(=O)(=O)c4cccs4)cc3)nc12
- IC50 [1]: 7.27 µM (active)
- IC50 (Caspase-3 [2]): 36.5 µM (active)
- IC50 [3]: 11.6 µM (active)
- EC50 (Streptococcus): 3.77 µM (active)
- IC50 [5]: 8.6 µM (active)
- EC50 [9]: 2.22 µM (active)

SMILES: Nc1ccn(C2OC(COC(=O)C34CC5CC(CC(C5)C3)C4)C(O)C2O)c(=O)n1 (centres undefined)
- AC50 [10]: < 0.26 µM (active)
- AC50 [11]: 36.9 µM (active)
- GI50 (P388): 0.506 µM (active)
- GI50 (P388/ADR): 0.889 µM (active)
- GI50 (SN12K1): 4.46 µM (inactive)
- AC50 [12]: 0.652 µM (active)

SMILES: CCc1ccc(-c2nc(/C=C/c3ccc(F)cc3)no2)cc1
- IC50 [13]: > 99 µM (inactive)
- IC50 (Caspase-3 [14]): > 99 µM (inactive)
- IC50 [15]: > 99 µM (inactive)
- IC50 [16]: > 99 µM (inactive)

SMILES: c1cc2n(n1)CCN2
- GI50 (P388): 361 µM (inactive)
- GI50 (P388/ADR): 294 µM (inactive)
- GI50 (SN12K1): 1150 µM (inactive)

Continued, in another order:

- EC50 [8]: 1.22 µM (active)
SMILES: c1ccc(CSc2nnnn2-c2cccc3ccccc23)nc1

- EC50 (Beta-galactosidase): > 40 µM (inactive)
- IC50 [7]: 7.76 µM (active)
SMILES: Cc1ccc(N=C2C(=O)Nc3ccc(Br)cc32)cc1

- IC50 [1]: 8.48 µM (active)
- IC50 (Caspase-3 [2]): 19.9 µM (active)
- IC50 [5]: 22.5 µM (active)
SMILES: N#Cc1ccccc1COC(=O)c1ccc2c(c1)OCCO2
- IC50 [3]: 27.5 µM (active)

- EC50 [8]: 0.0108 µM (active)
SMILES: COc1ccc([C@H](C)NC[C@H](O)c2ccc(O)c(NC=O)c2)cc1

- IC50 (Caspase-3 [14]): > 99 µM (inactive)
- IC50 [15]: > 99 µM (inactive)
- IC50 [16]: > 99 µM (inactive)
SMILES: COc1cc(NC(=O)Nc2ccc(F)cc2)cc2sc(NC(=O)c3ccccc3)nc12
- IC50 [13]: > 99 µM (inactive)

- IC50 (Caspase-3 [14]): > 99 µM (inactive)
- IC50 [15]: > 99 µM (inactive)
- IC50 [16]: > 99 µM (inactive)
SMILES: C(=N\Nc1ccccc1)/c1cn(Cc2ccccc2)c2ccccc12
- IC50 [13]: > 99 µM (inactive)
